Laboratory results reported in patent publication US20240116897A1, “BENZOTHIAZOLE AND BENZIMIDAZOLE DERIVATIVES, PHARMACEUTICALLY ACCEPTABLE SALT THEREOF, PREPARATION METHOD THEREFOR, AND PHARMACEUTICAL COMPOSITION COMPRISING SAME AS ACTIVE INGREDIENT” (KOREA RESEARCH INSTITUTE OF CHEMICAL TECHNOLOGY, priority 2021, published 2024).

Molecular target: T1, SIRT7 protein (Homo sapiens, UniProt Q9NRC8)
T1 construct: purchased SignalChem S41-30H
T1 sequence (Q9NRC8 1-400): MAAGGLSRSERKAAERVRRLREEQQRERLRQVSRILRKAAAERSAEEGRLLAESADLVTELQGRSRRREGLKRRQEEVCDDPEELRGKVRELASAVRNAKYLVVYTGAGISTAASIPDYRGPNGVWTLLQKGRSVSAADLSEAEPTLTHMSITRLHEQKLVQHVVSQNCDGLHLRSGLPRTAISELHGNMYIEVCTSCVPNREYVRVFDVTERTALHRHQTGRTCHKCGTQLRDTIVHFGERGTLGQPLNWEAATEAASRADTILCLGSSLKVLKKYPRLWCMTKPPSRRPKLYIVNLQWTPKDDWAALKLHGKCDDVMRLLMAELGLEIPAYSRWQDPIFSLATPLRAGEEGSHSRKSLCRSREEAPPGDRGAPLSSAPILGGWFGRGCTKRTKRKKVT
Test: SIRT Glo assay, inhibitory activity against Sirt7
Assay type: biochemical
Settings: 10 μM compound
Procedure: Promega's Cat. No. 6450 SIRT Glo assay kit was used, and as the target SIRT7 protein, No. S41-30H protein of SignalChem's Cat. was used. Prepare the compound by diluting it in SIRT Glo buffer in advance to a concentration twice as thick as the final concentration. For the positive control group of white 384 well plate (Greiner Bioone, white, small volume, Cat. No. 874075), and for compound group, dilute sirt7 protein in SIRT Glo buffer and dispense by 5 μL to contain 20 ng per well. In the background control group, 10 μL of SIRT Glo buffer is dispensed.
After adding 5 μL of SIRT Glo buffer to the positive control group, and 5 μL of the diluted compound to the compound group, react for 30 minutes. After making the substrate provided in the SIRT Glo assay, adding 10 μL each, and reacting for 1 hour, the luciferase activity is measured with a microplate reader (Molecular Device, spectramax i3).
Subtract the luciferase level of the background control group in all wells. The % inhibition of the compound was used to obtain the compound's rate of inhibitory activity against sirt7 in the following:
% inhibition=100−(compound group/positive control group)×100.

Compound | inhibition at 10 µM
Cc1ccc(Oc2ccc(C(=O)Nc3nc4cc(F)ccc4[nH]3)cc2)nn1 [Compound 1-6, N-(5-fluoro-1H-benzo[d]imidazol-2-yl)-4-((6-methylpyridazin-3-yl)oxy)benzamide] | 92%
O=C(Nc1nc2ccccc2[nH]1)c1ccc(CN2CCNCC2)cc1 [Compound 1-3, N-(1H-benzo[d]imidazol-2-yl)-4-(piperazin-1-ylmethyl)benzamide] | 10%
CN(C)S(=O)(=O)N1CCN(Cc2ccc(C(=O)Nc3nc4ccccc4s3)cc2)CC1 [Compound 1-33, N-(benzo[d]thiazol-2-yl)-4-((4-(N,N-dimethylsulfamoyl)piperazin-1-yl)methyl)benzamide] | 33%
c1ccc(CN2CCC3(CC2)CN(c2nc4ccccc4s2)C3)cc1 [Compound 1-30, 2-(7-benzyl-2,7-diazaspiro[3.5]nonan-2-yl)benzo[d]thiazole] | 19%
O=C(Nc1nc2ccccc2[nH]1)c1ccc(OCc2ccccc2)cc1 [Compound 1-12, N-(1H-benzo[d]imidazol-2-yl)-4-(benzyloxy)benzamide] | 99%
O=C(Nc1nc2ccccc2s1)c1ccc(CN2CCN(C(=O)NC34CC5CC(CC(C5)C3)C4)CC2)cc1 [Compound 1-41] | 66%
O=C(Nc1nc2ccccc2s1)c1ccc(CN2CCN(C(=O)Nc3ccccc3)CC2)cc1 [Compound 1-38, 4-(4-(benzo[d]thiazol-2-ylcarbamoyl)benzyl)-N-phenylpiperazine-1-carboxamide] | 98%
CCc1cnc(Oc2cccc(C(=O)Nc3nc4ccccc4[nH]3)c2)nc1 [Compound 1-8, N-(1H-benzo[d]imidazol-2-yl)-3-((5-ethylpyrimidin-2-yl)oxy)benzamide] | 44%
O=C(Nc1nc2ccccc2s1)c1ccc(CN2CCN(C(=O)Nc3ccc(C(F)(F)F)cc3)CC2)cc1 [Compound 1-39, 4-(4-(benzo[d]thiazol-2-ylcarbamoyl)benzyl)-N-(4-(trifluoromethyl)phenyl)piperazine-1-carboxamide] | 87%
CCc1cnc(Oc2ccc(C(=O)Nc3nc4ccccc4s3)cc2)nc1 [Compound 1-19, N-(benzo[d]thiazol-2-yl)-4-((5-ethylpyrimidin-2-yl)oxy)benzamide] | 13%
CC(C)(C)OC(=O)N1CCC2(CC1)CN(c1nc3ccccc3s1)C2 [Compound 1-24, tert-butyl 2-(benzo[d]thiazol-2-yl)-2,7-diazaspiro[3.5]nonane-7-carboxylate] | 10%
CC(C)(C)OC(=O)N1CCN(c2nc3ccccc3s2)CC1 [Compound 1-22, tert-butyl 4-(benzo[d]thiazol-2-yl)piperazine-1-carboxylate] | 49%
CCS(=O)(=O)N1CCN(Cc2ccc(C(=O)Nc3nc4ccccc4s3)cc2)CC1 [Compound 1-32, N-(benzo[d]thiazol-2-yl)-4-((4-(ethylsulfonyl)piperazin-1-yl)methyl)benzamide] | 34%
O=C(Nc1nc2ccccc2s1)c1ccc(CN2CCN(S(=O)(=O)c3ccc(C(F)(F)F)cc3)CC2)cc1 [Compound 1-36, N-(benzo[d]thiazol-2-yl)-4-((4-((4-(trifluoromethyl)phenyl)sulfonyl)piperazin-1-yl)methyl)benzamide] | 15%

Results, then the compound that gave them:

inhibition at 10 µM | Compound
5% | CCC(=O)N1CCN(Cc2ccc(C(=O)Nc3nc4ccccc4s3)cc2)CC1 [Compound 1-59, N-(benzo[d]thiazol-2-yl)-4-((4-propionylpiperazin-1-yl)methyl)benzamide]
14% | CC(C)(C)OC(=O)N1CCC(=Cc2ccc(C(=O)Nc3nc4ccccc4s3)c(C(F)(F)F)c2)CC1 [Compound 1-78, tert-butyl 4-(4-(benzo[d]thiazol-2-ylcarbamoyl)-3-(trifluoromethyl)benzylidene)piperidine-1-carboxylate]
80% | CCNC(=O)N1CCC(=Cc2ccc(C(=O)Nc3nc4ccccc4s3)c(C(F)(F)F)c2)CC1 [Compound 1-80, 4-(4-(benzo[d]thiazol-2-ylcarbamoyl)-3-(trifluoromethyl)benzylidene)-N-ethylpiperidine-1-carboxamide]
27% | O=C(Nc1nc2ccccc2s1)c1ccc(C=C2CCN(S(=O)(=O)c3ccccc3)CC2)cc1F [Compound 1-90, N-(benzo[d]thiazol-2-yl)-2-fluoro-4-((1-(phenylsulfonyl)piperidin-4-ylidene)methyl)benzamide]
64% | O=C(Nc1nc2ccccc2s1)c1ccc(CN2C[C@@H]3C[C@H]2CN3C(=O)Nc2ccccc2)cc1 [Compound 1-73, (1S,4S)-5-(4-(benzo[d]thiazol-2-ylcarbamoyl)benzyl)-N-phenyl-2,5-diazabicyclo[2.2.1]heptane-2-carboxamide]
76% | CCS(=O)(=O)N1CCC(=Cc2ccc(C(=O)Nc3nc4ccccc4s3)c(F)c2)CC1 [Compound 1-91, N-(benzo[d]thiazol-2-yl)-4-((1-(ethylsulfonyl)piperidin-4-ylidene)methyl)-2-fluorobenzamide]
100% | O=C(Nc1nc2ccccc2s1)c1ccc(C=C2CCN(C(=O)Nc3ccc(F)cc3)CC2)cc1Cl [Compound 1-108, 4-(4-(benzo[d]thiazol-2-ylcarbamoyl)-3-chlorobenzylidene)-N-(4-fluorophenyl)piperidine-1-carboxamide]
34% | CC(C)(C)OC(=O)N1CCC(=Cc2ccc(C(=O)Nc3nc4ccccc4s3)cc2Cl)CC1 [Compound 1-95, tert-butyl 4-(4-(benzo[d]thiazol-2-ylcarbamoyl)-2-chlorobenzylidene)piperidine-1-carboxylate]
100% | O=C(Nc1nc2ccccc2s1)c1ccc(C=C2CCNCC2)cc1F [Compound 1-87, N-(benzo[d]thiazol-2-yl)-2-fluoro-4-(piperidin-4-ylidenemethyl)benzamide]
7% | O=C(Nc1nc2ccccc2s1)c1ccc(CN2CCN(Cc3ccccc3)CC2)cc1 [Compound 1-62, N-(benzo[d]thiazol-2-yl)-4-((4-benzylpiperazin-1-yl)methyl)benzamide]
71% | O=C(Nc1nc2ccccc2s1)c1ccc(C=C2CCNCC2)cc1C(F)(F)F [Compound 1-79, N-(benzo[d]thiazol-2-yl)-4-(piperidin-4-ylidenemethyl)-2-(trifluoromethyl)benzamide]
2% | CC(C)(C)OC(=O)N1CCC(Cc2ccc(C(=O)Nc3nc4ccccc4s3)c(C(F)(F)F)c2)CC1 [Compound 1-82, tert-butyl 4-(4-(benzo[d]thiazol-2-ylcarbamoyl)-3-(trifluoromethyl)benzyl)piperidine-1-carboxylate]
10% | CC(C)(C)OC(=O)N1CCC(=Cc2ccc(C(=O)Nc3nc4ccccc4s3)cc2)CC1 [Compound 1-63, tert-butyl 4-(4-(benzo[d]thiazol-2-ylcarbamoyl)benzylidene)piperidine-1-carboxylate]
60% | CC(C)(C)OC(=O)N1CCC(=Cc2ccc(C(=O)Nc3nc4ccccc4s3)c(F)c2)CC1 [Compound 1-86, tert-butyl 4-(4-(benzo[d]thiazol-2-ylcarbamoyl)-3-fluorobenzylidene)piperidine-1-carboxylate]
6% | O=C(Nc1nc2ccccc2s1)c1ccc(C2CCN(C(=O)Nc3ccc(C(F)(F)F)cc3)CC2)cc1 [Compound 1-77]
87% | CCOc1ccccc1NC(=O)N1CCN(Cc2ccc(C(=O)Nc3nc4ccccc4s3)cc2)CC1 [Compound 1-56, 4-(4-(benzo[d]thiazol-2-ylcarbamoyl)benzyl)-N-(2-ethoxyphenyl)piperazine-1-carboxamide]
7% | CC(C)(C)OC(=O)N1CCC(Cc2ccc(C(=O)Nc3nc4ccccc4s3)cc2)CC1 [Compound 1-64, tert-butyl 4-(4-(benzol[d]thiazol-2-ylcarbamoyl)benzyl)piperidine-1-carboxylate]
100% | CCNC(=O)N1CCC(Cc2ccc(C(=O)Nc3nc4ccccc4s3)cc2)CC1 [Compound 1-69, 4-(4-(benzo[d]thiazol-2-ylcarbamoyl)benzyl)-N-ethylpiperidine-1-carboxamide]
16% | O=C(Nc1nc2ccccc2s1)c1ccc(CC2CCNCC2)cc1 [Compound 1-66, N-(benzo[d]thiazol-2-yl)-4-(piperidin-4-ylmethyl)benzamide]
32% | O=C(Nc1nc2ccccc2s1)c1ccc(C=C2CCN(C(=O)Nc3ccccc3)CC2)cc1C(F)(F)F [Compound 1-81, 4-(4-(benzo[d]thiazol-2-ylcarbamoyl)-3-(trifluoromethyl)benzylidene)-N-phenylpiperidine-1-carboxamide]
88% | Cc1cc(C)cc(NC(=O)N2CCN(Cc3ccc(C(=O)Nc4nc5ccccc5s4)cc3)CC2)c1 [Compound 1-47, 4-(4-(benzo[d]thiazol-2-ylcarbamoyl)benzyl)-N-(3,5-dimethyphenyl)piperazine-1-carboxamide]
